From patent publication US5854216A, “Marker for growth hormone-releasing factor receptors” (Universite de Montreal, priority 1996, dated 1998)
Square brackets hold non-standard residues; d marks the D form. Ends that are not written are not given here. Peptide text beside a SMILES is read from it. Phe(4-NO2) = N[C@@H](Cc1ccc([N+](=O)[O-])cc1)C(=O)O

Columns and labels:
[1] = target: T1, GRF receptor (adenylate cyclase activity in rat adenopituitary) (Rattus norvegicus, UniProt Q02644); experiment: Adenylate cyclase assay on anterior pituitary homogenates (cAMP by HPLC); type: biochemical; settings: for IC50: 50% of maximal cAMP accumulation induced by 1 μM hGRF(1-29)NH2
T1 construct: from tissue; host or cells: rat anterior pituitary homogenate
T1 sequence (Q02644 23-423 isoform Q02644-2 limits assumed): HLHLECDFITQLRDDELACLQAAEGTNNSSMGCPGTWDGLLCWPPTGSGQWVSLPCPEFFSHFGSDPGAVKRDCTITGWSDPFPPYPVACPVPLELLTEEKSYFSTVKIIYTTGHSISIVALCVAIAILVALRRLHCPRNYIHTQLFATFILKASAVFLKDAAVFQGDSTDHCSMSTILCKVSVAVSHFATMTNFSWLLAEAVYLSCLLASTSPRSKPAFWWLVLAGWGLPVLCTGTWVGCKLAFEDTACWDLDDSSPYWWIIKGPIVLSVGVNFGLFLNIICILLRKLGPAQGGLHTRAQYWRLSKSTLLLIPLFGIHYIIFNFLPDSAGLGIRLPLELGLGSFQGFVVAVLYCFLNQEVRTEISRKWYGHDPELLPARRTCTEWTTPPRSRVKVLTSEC
Experimental: The adenylate cyclase activity Nε-CF-[Lys^31 ]hGRF was performed on anterior pituitary homogenates as previously described (Lefrangois L. and Gaudreau P., J. Chromatogr., 1993, 619:116-120). Briefly, anterior pituitaries (pit.) were dissected out, rinsed and homogenized for 8 sec with a Micro Ultrasonic Cell Disrupter™, in ice-cold 20 mM Tris-HCl buffer (pH 7.5) containing 2 mM MgCl2 and 250 mM sucrose (1 pit./0.5 ml).
Samples of anterior pituitary homogenates (30-40 μg protein) were incubated in 1.5 ml Eppendorf™ tubes with 30 mM Tris-HCl, 5 mM MgCl2, 0.5 mM EGTA, containing 0.5 mM ATP, 1 mM IBMX, 10 μM GTP and an ATP regenerating system consisting of 2 mM creatine phosphate, 0.1 mg/ml creatine kinase and, 0.1 mg/ml myokinase in a final volume of 120 μl. Incubations were initiated by adding 20 μl of the homogenate to the reaction mixture which had previously been equilibrated at 37° C. for 2 min. The reactions were carried out for 8 min at 37° C. and stopped by heating the samples in boiling water for 4 min. Samples were centrifuged (12000 g, 5 min, 4° C.) and supernatants were filtered through 0.45 μm Millex HV4 ™ filters and transferred to autosampler vials for HPLC quantification of cAMP.

[2] = target: T2, GRF receptors ([^125 I-Tyr^10 ]hGRF(1-44)NH2 binding sites in rat adenopituitary) (Rattus norvegicus, UniProt Q02644); experiment: Competitive binding assay with [^125 I-Tyr^10 ]hGRF(1-44)NH2 on anterior pituitary homogenates; settings: for Relative affinity: ratio IC50 of hGRF(1-29)NH2 /IC50 analogue
T2 construct: from tissue; host or cells: rat anterior pituitary homogenate
T2 sequence (Q02644 23-423 isoform Q02644-2 limits assumed): T1 sequence (Q02644 23-423 isoform Q02644-2 limits assumed)
Experimental: The binding of [^125 I-Tyr^10 ]hGRF(1-44)NH2 was performed on anterior pituitary homogenates as previously described (Gaudreau P. et al., J. Biol. Chem., 1992, 35:1864-1869). Briefly, anterior pituitaries (pit.) were dissected out, rinsed and homogenized for 8 sec with a Micro Ultrasonic Cell Disrupter™, in ice-cold 50 mM Tris-HCl buffer, pH 7.4, containing 5 mM MgCl2 and 5 mM EDTA (1 pit./0.5 ml). These homogenates were used immediately. Competition studies were performed using 35-50 pM [^125 I-Tyr^10 ]hGRF(1-44)NH2 as radio-ligand,50 μl of homogenate (70 to 75 μg of protein), and increasing concentrations of Nε-CF-[Lys^31 ]hGRF or other GRF analogues (0-1000 nM) or with 2.4 μM rGRF(1-29)NH2 for determination of non-specific binding, in a total volume of 300 μl of Tris-HCl buffer, pH 7.4, containing 5 mM EDTA, 5 mM MgCl2 and 0.42% BSA. Incubations were carried out at 23° C. for 60 min and stopped by centrifugation (12,000 g, 5 min, at 4° C.). The radioactivity content in the pellet was measured by gamma counting. The affinity of hGRF(1-29)NH2 was tested in each experiment to assess the validity of the assay and determine the relative affinity of the analogues. […] The Hill values indicate that all these peptides bind to the high and low affinity GRF binding sites found in the anterior pituitary.

[3] = Table 12, mean±SD of 2 or mean±SE of 3 to 6 experiments, 10 for hGRF(1-29)NH2
[4] = Table 11, mean±SD of 2 or mean±SE of 3 experiments for analogues, mean±SE of 11 for hGRF(1-29)NH2
[5] = Table 4, mean±SD of 2 experiments in triplicate for analogues, mean±SE of 29 experiments for hGRF(1-29)NH2

`CC[C@H](C)[C@H](NC(=O)[C@H](C)NC(=O)[C@H](CC(=O)O)NC(=O)[C@H](C)NC(=O)[C@@H](N)Cc1ccc(O)cc1)C(=O)N[C@@H](Cc1ccccc1)C(=O)N[C@H](C(=O)N[C@H](CC(N)=O)C(=O)N[C@@H](CO)C(=O)N[C@@H](Cc1ccc(O)cc1)C(=O)N[C@@H](CCCNC(=N)N)C(=O)N[C@@H](CCCCN)C(=O)N[C@H](C(=O)N[C@@H](CC(C)C)C(=O)NCC(=O)N[C@@H](CCC(N)=O)C(=O)N[C@@H](CC(C)C)C(=O)N[C@@H](CO)C(=O)N[C@@H](C)C(=O)N[C@@H](CCCNC(=N)N)C(=O)N[C@@H](CCCCN)C(=O)N[C@H](CC(C)C)C(=O)N[C@@H](CC(C)C)C(=O)N[C@@H](CCC(N)=O)C(=O)N[C@@H](CC(=O)O)C(=O)N[C@H](C(=O)N[C@@H](CCSC)C(=O)N[C@@H](CO)C(=O)N[C@@H](CCCNC(=N)N)C(N)=O)[C@@H](C)CC)C(C)C)[C@@H](C)O` [D-Ans^8, D-Leu^22] gave an IC50 [1, 3] of 67 ± 24 nM and an IC50 [2, 4] of 4.9 ± 3.25 nM.

For `CC[C@H](C)[C@H](NC(=O)[C@H](C)NC(=O)[C@H](CC(=O)O)NC(=O)[C@H](C)NC(=O)[C@@H](N)Cc1ccc(O)cc1)C(=O)N[C@@H](Cc1ccccc1)C(=O)N[C@H](C(=O)N[C@@H](CC(N)=O)C(=O)N[C@@H](CO)C(=O)N[C@@H](Cc1ccc(O)cc1)C(=O)N[C@@H](CCCNC(=N)N)C(=O)N[C@@H](CCCCN)C(=O)N[C@H](C(=O)N[C@@H](CC(C)C)C(=O)NCC(=O)N[C@@H](CCC(N)=O)C(=O)N[C@@H](CC(C)C)C(=O)N[C@@H](CO)C(=O)N[C@@H](C)C(=O)N[C@@H](CCCNC(=N)N)C(=O)N[C@@H](CCCCN)C(=O)N[C@@H](CC(C)C)C(=O)N[C@@H](CC(C)C)C(=O)N[C@@H](CCC(N)=O)C(=O)N[C@@H](CC(=O)O)C(=O)N[C@H](C(=O)N[C@@H](CCSC)C(=O)N[C@@H](CO)C(=O)N[C@@H](CCCNC(=N)N)C(N)=O)[C@@H](C)CC)C(C)C)[C@@H](C)O` [hGRF(1-29)NH2, reference compound], the IC50 ([1]; Table 5, mean±SD of 2 experiments (analogue), mean±SE of 10 (hGRF(1-29)NH2)) was 36.7 ± 5.5 nM and the IC50 [2, 5] was 2.67 ± 0.12 nM.

“YADAIFTNSYRKVLGQLSARKKLQDIMSR-NH2 [Lys^22]” gave an IC50 [1, 3] of 2.63 ± 0.64 nM, a Relative activity ([1]; Table 12, ratio EC50 of hGRF(1-29)NH2 /EC50 analogue) of 1395 ± 339% and a Hill coef. ([2]; Table 11) of 0.62 ± 0.06. The IC50 [2, 4] was 0.23 ± 0.04 nM, the Relative affinity ([2]; Table 11) was 1043 ± 181% and the “biological activity compared to that of native GRF” value ([2]; rat adenopituitary) was “preserved or increased”.

With “YADAIFTAAYRKVLAQLSARKALQDIMSR-NH2 [Ala^8, Ala^9, Ala^15, Ala^22]” the IC50 [1, 3] was 2.88 ± 1.01 nM and the IC50 [2, 4] was 0.31 ± 0.14 nM.

With `CC[C@H](C)[C@H](NC(=O)[C@H](C)NC(=O)[C@H](CC(=O)O)NC(=O)[C@@H](C)NC(=O)[C@@H](N)Cc1ccc(O)cc1)C(=O)N[C@@H](Cc1ccccc1)C(=O)N[C@H](C(=O)N[C@@H](CC(N)=O)C(=O)N[C@@H](CO)C(=O)N[C@H](Cc1ccc(O)cc1)C(=O)N[C@@H](CCCNC(=N)N)C(=O)N[C@@H](CCCCN)C(=O)N[C@H](C(=O)N[C@@H](CC(C)C)C(=O)N[C@H](C)C(=O)N[C@@H](CCC(N)=O)C(=O)N[C@@H](CC(C)C)C(=O)N[C@@H](CO)C(=O)N[C@@H](C)C(=O)N[C@@H](CCCNC(=N)N)C(=O)N[C@@H](CCCCN)C(=O)N[C@@H](CCCCN)C(=O)N[C@@H](CC(C)C)C(=O)N[C@@H](CCC(N)=O)C(=O)N[C@@H](CC(=O)O)C(=O)N[C@H](C(=O)N[C@@H](CCSC)C(=O)N[C@@H](CO)C(=O)N[C@@H](CCCNC(=N)N)C(N)=O)[C@@H](C)CC)C(C)C)[C@@H](C)O` [D-Ala^2, D-Tyr^10, D-Ala^15, Lys^22] (H-Y[dA]DAIFTNS[dY]RKVL[dA]QLSARKKLQDIMSR-NH2) the IC50 [2, 4] was 2.49 ± 0.98 nM.

`CC[C@H](C)[C@H](NC(=O)[C@H](C)NC(=O)[C@H](CC(=O)O)NC(=O)[C@H](C)NC(=O)[C@@H](N)Cc1ccc(O)cc1)C(=O)N[C@@H](Cc1ccccc1)C(=O)N[C@H](C(=O)N[C@@H](CC(N)=O)C(=O)N[C@@H](Cc1ccc([N+](=O)[O-])cc1)C(=O)N[C@@H](Cc1ccc(O)cc1)C(=O)N[C@@H](CCCNC(=N)N)C(=O)N[C@@H](CCCCN)C(=O)N[C@H](C(=O)N[C@@H](CC(C)C)C(=O)NCC(=O)N[C@@H](CCC(N)=O)C(=O)N[C@@H](CC(C)C)C(=O)N[C@@H](CO)C(=O)N[C@@H](C)C(=O)N[C@@H](CCCNC(=N)N)C(=O)N[C@@H](CCCCN)C(=O)N[C@@H](CC(C)C)C(=O)N[C@@H](CC(C)C)C(=O)N[C@@H](CCC(N)=O)C(=O)N[C@@H](CC(=O)O)C(=O)N[C@H](C(=O)N[C@@H](CCSC)C(=O)N[C@@H](CO)C(=O)N[C@@H](CCCNC(=N)N)C(N)=O)[C@@H](C)CC)C(C)C)[C@@H](C)O` [npa^9, [4'-nitro-phenylanalylalanine^9]hGRF(1-29)NH2] (H-YADAIFTN[Phe(4-NO2)]YRKVLGQLSARKLLQDIMSR-NH2) was tested, and the “IC50 (in words)” value [2] was “low nanomolar range”.

With `CC[C@H](C)[C@H](NC(=O)[C@H](C)NC(=O)[C@H](CC(=O)O)NC(=O)[C@H](C)NC(=O)[C@H](Cc1ccc(O)cc1)NC(=S)Nc1ccc2c(c1)C(=O)OC21c2ccc(O)cc2Oc2cc(O)ccc21)C(=O)N[C@@H](Cc1ccccc1)C(=O)N[C@H](C(=O)N[C@@H](CC(N)=O)C(=O)N[C@@H](CO)C(=O)N[C@@H](Cc1ccc(O)cc1)C(=O)N[C@@H](CCCNC(=N)N)C(=O)N[C@@H](CCCCN)C(=O)N[C@H](C(=O)N[C@@H](CC(C)C)C(=O)NCC(=O)N[C@@H](CCC(N)=O)C(=O)N[C@@H](CC(C)C)C(=O)N[C@@H](CO)C(=O)N[C@@H](C)C(=O)N[C@@H](CCCNC(=N)N)C(=O)N[C@@H](CCCCN)C(=O)N[C@@H](CC(C)C)C(=O)N[C@@H](CC(C)C)C(=O)N[C@@H](CCC(N)=O)C(=O)N[C@@H](CC(=O)O)C(=O)N[C@H](C(=O)N[C@@H](CCSC)C(=O)N[C@@H](CO)C(=O)N[C@@H](CCCNC(=N)N)C(=O)N[C@@H](CCC(N)=O)C(=O)N[C@@H](CCC(N)=O)C(=O)NCC(=O)N[C@@H](CCC(=O)O)C(=O)N[C@@H](CO)C(=O)N[C@@H](CC(N)=O)C(=O)N[C@@H](CCC(N)=O)C(=O)N[C@@H](CCC(=O)O)C(=O)N[C@@H](CCCNC(=N)N)C(=O)NCC(=O)N[C@@H](C)C(=O)N[C@@H](CCCNC(=N)N)C(=O)N[C@@H](C)C(=O)N[C@@H](CCCNC(=N)N)C(=O)N[C@@H](CC(C)C)C(N)=O)[C@@H](C)CC)C(C)C)[C@@H](C)O` [[Nα-fluorescein-5-thiocarbamyl]hGRF(1-44)NH2] the “affinity for adenopituitary GRF receptors (in words)” value [2] was “nanomolar affinity”, the Hill coef. ([2]; Table 4) was 0.63 ± 0.07 and the IC50 [2, 5] was 14 ± 4 nM. The Relative affinity ([2]; Table 4) was 19 ± 5%.

With “4'-benzoyl-phenylalyl^10 ]hGRF(1-29)NH2 [bpa^10]” the “IC50 (in words)” value [2] was “low nanomolar range” and the “affinity for adenopituitary GRF receptors (in words)” value [2] was “high affinity”.
